Reference: patent US4118482A (priority 1977, dated 1978)
Like-named read-outs stand apart in the source and are kept apart here. Numbered stars: 1 amine (or outer) side, 2 acyl side, 3 side chain; on linkers, the order of the positions; unused ones are H or OH. Bridge positions count the residues as written; N and C are the ends. Square brackets hold non-standard residues; d marks the D form. Peptide text beside a SMILES is read from it. I, II: the chains in the order shown. Actinocin(9to1) = Cc1c2oc3c(C)ccc(C(=O)[*:1])c3nc-2c(C(=O)[*:2])c(N)c1=O; NMeV = CN[CH](C(=O)O)C(C)C; Aze = O=C(O)[CH]1CCN1; Sar = CNCC(=O)O

Key:
[1] = test system: advanced Ridgeway osteogenic sarcoma; details: cited from earlier work
[2] = test system: P388 leukemia; experiment: P388 leukemia in mice, treatment QD at days 1-9 (National Cancer Institute screen); type: in vivo; details: for 5 ILS* (increased life span) / 60 DAY "CURES" / SURVIAL TIME MEDIAN: QD days 1-9, P388 mice; for SURVIAL TIME MEDIAN: controls 10 days
Source text: (§1) The National Cancer Institute conducted a screening test on samples of both Azetomicin I (3' prolyl, 3' azet) and Azetomicin II (3', 3' azet) as well as on Dactinomycin (3', 3' prolyl) that is also known as Actinomycin D or C1. The Azetomicin and Dactinomycin molecules are identical, with the exception of the 3' amino acid position on the peptides, wherein the 3' positions, in the case of Dactinomycin are both prolyl; in the case of the Azetomicin I are prolyl and azetidine-2-carboxyl; and in the cae of Azetomicin II are both azetidine-2-carboxyl.
P 388 LEUKEMIA : QD AT DAYS 1-9 TREATMENT

[3] = test system: ADVANCED P388 LEUKEMIA; experiment: Advanced P388 leukemia in mice, treatment Q4D x 3 at days 5, 9, 13; type: in vivo; details: Q4D x 3 days 5, 9, 13, advanced P388; for SURVIAL TIME MEDIAN: controls 10 days
Source text: as §1
ADVANCED P388 LEUKEMIA : Q4D × 3 AT DAYS 5, 9, 13 TREATMENT

[4] = test system: Rous sarcoma virus; experiment: Development of visible tumors in chicks infected with Rous sarcoma virus, single injection; type: in vivo; details: injected once; compared with untreated or saline injected controls
Procedure: In another test, both Azetomicin I and Azetomicin II, were injected once into chicks infected with Rous sarcoma virus. The development of visible tumors was decreased by over 80% as compared with untreated or saline injected controls.

[5] = test system: Bacillus subtilis, Staphylococcus aureus and Staphylococcus albus; experiment: Inhibition of bacterial growth (cross section of gram-positive and gram-negative bacteria); type: cell-based
[6] = Toxicity per mg compared with Actinomicin D
[7] = Storage stability in aqueous solution; type: physicochemical; details: 0°-25° C, pH range of 5-8, maintained in the dark
Procedure: The major products of interest were determined to be Azetomicin I and Azetomycin II. They were stable after storage at 0°-25° C in aqueous solution in the pH range of 5-8 for at least 5 days when maintained in the dark.

[8] = schedule day 12, data of Southern Research Institute

Compound: C[C@]12C=CC(=O)C=C1CC[C@@H]1[C@@H]2C(=O)C[C@@]2(C)[C@H]1CC[C@]2(O)C(=O)CO [PREDNISONE]
- "CURES" (Number/Total) ([1]; schedule days 12,16,20): 0/10
- REGRESSION 50+%-PARTIAL (Number/Total) ([1]; schedule days 12,16,20): 0/10
- REGRESSION COMPLETE (Number/Total) ([1]; schedule days 12,16,20): 0/10

Compound: CN(C)/N=N/c1[nH]cnc1C(N)=O [DTIC]
- "CURES" (Number/Total) [1, 8]: 0/10
- REGRESSION 50+%-PARTIAL (Number/Total) [1, 8]: 0/10
- REGRESSION COMPLETE (Number/Total) [1, 8]: 0/10

Compound: S=P(N1CC1)(N1CC1)N1CC1 [THIO-TEPA]
- "CURES" (Number/Total) [1, 8]: 0/10
- REGRESSION 50+%-PARTIAL (Number/Total) [1, 8]: 0/10
- REGRESSION COMPLETE (Number/Total) [1, 8]: 0/10

Compound: COc1cccc2c1C(=O)c1c(O)c3c(c(O)c1C2=O)C[C@@](O)(C(C)=O)C[C@@H]3O[C@H]1C[C@H](N)[C@H](O)[C@H](C)O1 [DAUNOMYCIN]
- "CURES" (Number/Total) ([1]; schedule days 12-17): 0/12
- REGRESSION 50+%-PARTIAL (Number/Total) ([1]; schedule days 12-17): 9/12
- REGRESSION COMPLETE (Number/Total) ([1]; schedule days 12-17): 3/12

Compound: O=NN(CCCl)C(=O)NCCCl [BCNU]
- "CURES" (Number/Total) [1, 8]: 0/8
- REGRESSION 50+%-PARTIAL (Number/Total) [1, 8]: 0/8
- REGRESSION COMPLETE (Number/Total) [1, 8]: 0/8

Compound: COc1cccc2c1C(=O)c1c(O)c3c(c(O)c1C2=O)C[C@@](O)(C(=O)CO)C[C@@H]3O[C@H]1C[C@H](N)[C@H](O)[C@H](C)O1 [ADRIAMYCIN]
- "CURES" (Number/Total) [1, 8]: 0/8
- REGRESSION 50+%-PARTIAL (Number/Total) [1, 8]: 7/8
- REGRESSION COMPLETE (Number/Total) [1, 8]: 7/8

Compound: CC[C@]1(O)C[C@H]2CN(CCc3c([nH]c4ccccc34)[C@@](C(=O)OC)(c3cc4c(cc3OC)N(C=O)[C@H]3[C@@](O)(C(=O)OC)[C@H](OC(C)=O)[C@]5(CC)C=CCN6CC[C@]43[C@@H]65)C2)C1 [VINCRISTINE]
- "CURES" (Number/Total) ([1]; schedule days 12,16,20): 0/10
- REGRESSION 50+%-PARTIAL (Number/Total) ([1]; schedule days 12,16,20): 10/10
- REGRESSION COMPLETE (Number/Total) ([1]; schedule days 12,16,20): 8/10

Compound: CO[C@@]12[C@H](COC(N)=O)C3=C(C(=O)C(C)=C(N)C3=O)N1C[C@@H]1N[C@@H]12 [MITOMYCIN-C]
- "CURES" (Number/Total) [1, 8]: 0/10
- REGRESSION 50+%-PARTIAL (Number/Total) [1, 8]: 0/10
- REGRESSION COMPLETE (Number/Total) [1, 8]: 0/10

Compound: L-ASPARAGINASE
- "CURES" (Number/Total) [1, 8]: 0/10
- REGRESSION 50+%-PARTIAL (Number/Total) [1, 8]: 0/10
- REGRESSION COMPLETE (Number/Total) [1, 8]: 0/10

Compound: CN(Cc1cnc2nc(N)nc(N)c2n1)c1ccc(C(=O)N[C@@H](CCC(=O)O)C(=O)O)cc1 [METHOTREXATE]
- "CURES" (Number/Total) ([1]; schedule days 12,16,20,24): 0/10
- REGRESSION 50+%-PARTIAL (Number/Total) ([1]; schedule days 12,16,20,24): 0/10
- REGRESSION COMPLETE (Number/Total) ([1]; schedule days 12,16,20,24): 0/10

Compound: N[C@@H](Cc1ccc(N(CCCl)CCCl)cc1)C(=O)O [L-SARCOLYSIN]
- "CURES" (Number/Total) [1, 8]: 4/8
- REGRESSION 50+%-PARTIAL (Number/Total) [1, 8]: 8/8
- REGRESSION COMPLETE (Number/Total) [1, 8]: 7/8

Compound: Nc1ncn([C@@H]2O[C@H](CO)[C@@H](O)[C@H]2O)c(=O)n1 [AZACYTIDINE]
- "CURES" (Number/Total) ([1]; schedule days 12,16,20,24): 0/7
- REGRESSION 50+%-PARTIAL (Number/Total) ([1]; schedule days 12,16,20,24): 0/7
- REGRESSION COMPLETE (Number/Total) ([1]; schedule days 12,16,20,24): 0/7

Compound: Nc1ccn([C@@H]2O[C@H](CO)[C@@H](O)[C@@H]2O)c(=O)n1 [ARA-C]
- "CURES" (Number/Total) ([1]; schedule days 12,12,20(q3h)): 0/10
- REGRESSION 50+%-PARTIAL (Number/Total) ([1]; schedule days 12,12,20(q3h)): 7/10
- REGRESSION COMPLETE (Number/Total) ([1]; schedule days 12,12,20(q3h)): 3/10

Compound: O=C(O)CCCc1ccc(N(CCCl)CCCl)cc1 [CHLORAMBUCIL]
- "CURES" (Number/Total) [1, 8]: 0/10
- REGRESSION 50+%-PARTIAL (Number/Total) [1, 8]: 0/10
- REGRESSION COMPLETE (Number/Total) [1, 8]: 0/10

Compound: Cc1c2oc3c(C)ccc(C(=O)NC4C(=O)NC(C(C)C)C(=O)N5CCC5C(=O)N(C)CC(=O)N(C)C(C(C)C)C(=O)OC4C)c3nc-2c(C(=O)NC2C(=O)NC(C(C)C)C(=O)N3CCC3C(=O)N(C)CC(=O)N(C)C(C(C)C)C(=O)OC2C)c(N)c1=O (centres unmarked) [AZETOMICIN-II, Azetomicin II] (I: TV[Aze][Sar][NMeV] / II: TV[Aze][Sar][NMeV]; ester I:1-I:C, II:1-II:C; linker I:N-II:N via Actinocin(9to1); configuration not given here)
- 5 ILS* (increased life span) ([2]; 0.05 Mg/Kg/Inj.): 125%
- 60 DAY "CURES" ([2]; 0.05 Mg/Kg/Inj.): 0%
- SURVIAL TIME MEDIAN ([2]; 0.05 Mg/Kg/Inj.): 22.5 days
- 5 ILS* (increased life span) ([2]; 0.1 Mg/Kg/Inj.): 130%
- 60 DAY "CURES" ([2]; 0.1 Mg/Kg/Inj.): 12%
- SURVIAL TIME MEDIAN ([2]; 0.1 Mg/Kg/Inj.): 23 days
- activity compared with Dactinomycin (summary of Table I) ([2]; P388 leukemia mice, Table I): roughly comparable in activity to Dactinomycin
- 5 ILS* (increased life span) ([3]; 0.6 Mg/Kg/Inj.): 150%
- 60 DAY "CURES" ([3]; 0.6 Mg/Kg/Inj.): 0
- SURVIAL TIME MEDIAN ([3]; 0.6 Mg/Kg/Inj.): 25 days
- decrease of development of visible tumors [4]: over 80%
- activity against bacterial growth relative to Actinomicin D [5]: 50%
- toxicity/mg. compared with Actinomicin D [6]: substantially less toxic/mg.
- time stable after storage in aqueous solution [7]: at least 5 days

Compound: O=P1(N(CCCl)CCCl)NCCCO1 (centres unmarked) [CYCLOPHOSPHAMIDE]
- "CURES" (Number/Total) [1, 8]: 3/8
- REGRESSION 50+%-PARTIAL (Number/Total) [1, 8]: 8/8
- […] (Number/Total) [1, 8]: 8/8

Compound: Cc1c2oc3c(C)ccc(C(=O)N[C@@H]4C(=O)N[C@H](C(C)C)C(=O)N5CCC[C@H]5C(=O)N(C)CC(=O)N(C)[C@@H](C(C)C)C(=O)O[C@@H]4C)c3nc-2c(C(=O)N[C@@H]2C(=O)N[C@H](C(C)C)C(=O)N3CCC[C@H]3C(=O)N(C)CC(=O)N(C)[C@@H](C(C)C)C(=O)O[C@@H]2C)c(N)c1=O [DACTINOMYCIN, Dactinomycin] (I: T[dV]P[Sar][NMeV] / II: T[dV]P[Sar][NMeV]; ester I:1-I:C, II:1-II:C; linker I:N-II:N via Actinocin(9to1))
- 5 ILS* (increased life span) ([2]; 0.05 Mg/Kg/Inj.): 180%
- 60 DAY "CURES" ([2]; 0.05 Mg/Kg/Inj.): 0%
- SURVIAL TIME MEDIAN ([2]; 0.05 Mg/Kg/Inj.): 28 days
- 5 ILS* (increased life span) ([2]; 0.1 Mg/Kg/Inj.): 115%
- 60 DAY "CURES" ([2]; 0.1 Mg/Kg/Inj.): 12%
- SURVIAL TIME MEDIAN ([2]; 0.1 Mg/Kg/Inj.): 21.5 days
- 5 ILS* (increased life span) ([3]; 0.15 Mg/Kg/Inj.): 95%
- 60 DAY "CURES" ([3]; 0.15 Mg/Kg/Inj.): 0
- SURVIAL TIME MEDIAN ([3]; 0.15 Mg/Kg/Inj.): 19.5 days

Compound: O=NN(CCCl)C(=O)NC1CCCCC1 [CCNU]
- "CURES" (Number/Total) [1, 8]: 0/8
- REGRESSION 50+%-PARTIAL (Number/Total) [1, 8]: 0/8
- REGRESSION COMPLETE (Number/Total) [1, 8]: 0/8

Compound: O=c1[nH]cc(F)c(=O)[nH]1 [FLUOROURACIL]
- "CURES" (Number/Total) ([1]; schedule days 12,16,20,24): 0/10
- REGRESSION 50+%-PARTIAL (Number/Total) ([1]; schedule days 12,16,20,24): 8/10
- REGRESSION COMPLETE (Number/Total) ([1]; schedule days 12,16,20,24): 5/10

Compound: MITHRAMYCIN
- "CURES" (Number/Total) [1, 8]: 0/7
- REGRESSION 50+%-PARTIAL (Number/Total) [1, 8]: 0/7
- REGRESSION COMPLETE (Number/Total) [1, 8]: 0/7

Compound: CNNCc1ccc(C(=O)NC(C)C)cc1 [PROCARBAZINE]
- "CURES" (Number/Total) ([1]; schedule days 12-20): 0/10
- REGRESSION 50+%-PARTIAL (Number/Total) ([1]; schedule days 12-20): 0/10
- REGRESSION COMPLETE (Number/Total) ([1]; schedule days 12-20): 0/10

Compound: S=c1nc[nH]c2nc[nH]c12 [MERCAPTOPURINE]
- "CURES" (Number/Total) ([1]; schedule days 12-22): 0/10
- REGRESSION 50+%-PARTIAL (Number/Total) ([1]; schedule days 12-22): 9/10
- REGRESSION COMPLETE (Number/Total) ([1]; schedule days 12-22): 6/10
